# Measured values published in patent US20230339878A1, “SLC26A3 INHIBITORS AND USE THEREOF” (THE REGENTS OF THE UNIVERSITY OF CALIFORNIA, priority 2018, published 2023).
# pIC50: −log10 of the molar value. Entries after “also recorded” stand apart in the source; their conditions may differ.
# Legend:
# [1] = target: T1, PAT-1 (slc26a6) (Mus musculus, UniProt Q8CIW6); experiment: Selectivity: slc26a6 Cl-/I- exchange in HEK cells; assay type: cell-based, murine; conditions: 10 µM
# T1 construct: full-length slc26a6 was subcloned into pLVX-YFP-T2A-Puro as an EcoRI to XbaI fragment; host or cells: HEK293 cells infected with lentivirus, puromycin selected
# T1 sequence (Q8CIW6 1-758): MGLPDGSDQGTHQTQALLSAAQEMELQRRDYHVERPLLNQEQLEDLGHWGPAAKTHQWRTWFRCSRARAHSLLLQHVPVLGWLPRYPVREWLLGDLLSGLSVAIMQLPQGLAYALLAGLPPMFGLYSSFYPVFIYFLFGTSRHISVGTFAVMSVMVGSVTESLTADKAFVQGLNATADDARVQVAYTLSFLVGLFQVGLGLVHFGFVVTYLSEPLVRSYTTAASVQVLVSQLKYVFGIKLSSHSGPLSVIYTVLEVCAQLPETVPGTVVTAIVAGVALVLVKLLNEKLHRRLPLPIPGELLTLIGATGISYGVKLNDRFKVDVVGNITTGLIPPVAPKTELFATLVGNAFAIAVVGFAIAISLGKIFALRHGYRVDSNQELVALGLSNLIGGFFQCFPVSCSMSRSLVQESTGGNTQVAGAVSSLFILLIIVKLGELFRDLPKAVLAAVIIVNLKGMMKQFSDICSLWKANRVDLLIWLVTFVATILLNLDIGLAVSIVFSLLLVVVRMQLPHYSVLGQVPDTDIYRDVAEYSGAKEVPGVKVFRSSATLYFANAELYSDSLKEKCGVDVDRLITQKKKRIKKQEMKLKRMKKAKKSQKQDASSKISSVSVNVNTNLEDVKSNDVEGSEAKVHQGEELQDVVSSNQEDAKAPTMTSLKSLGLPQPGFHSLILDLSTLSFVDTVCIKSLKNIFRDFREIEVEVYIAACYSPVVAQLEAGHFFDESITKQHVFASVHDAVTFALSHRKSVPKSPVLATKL
# [2] = target: T2, (human) SLC26A3 (Homo sapiens, UniProt P40879); experiment: SLC26A3-mediated Cl-/I- exchange in HEK cells expressing SLC26A3 and YFP; assay type: cell-based
# T2 construct: host or cells: HEK293 cells transduced with lentivirus, then transfected with YFP
# T2 sequence (P40879 1-764): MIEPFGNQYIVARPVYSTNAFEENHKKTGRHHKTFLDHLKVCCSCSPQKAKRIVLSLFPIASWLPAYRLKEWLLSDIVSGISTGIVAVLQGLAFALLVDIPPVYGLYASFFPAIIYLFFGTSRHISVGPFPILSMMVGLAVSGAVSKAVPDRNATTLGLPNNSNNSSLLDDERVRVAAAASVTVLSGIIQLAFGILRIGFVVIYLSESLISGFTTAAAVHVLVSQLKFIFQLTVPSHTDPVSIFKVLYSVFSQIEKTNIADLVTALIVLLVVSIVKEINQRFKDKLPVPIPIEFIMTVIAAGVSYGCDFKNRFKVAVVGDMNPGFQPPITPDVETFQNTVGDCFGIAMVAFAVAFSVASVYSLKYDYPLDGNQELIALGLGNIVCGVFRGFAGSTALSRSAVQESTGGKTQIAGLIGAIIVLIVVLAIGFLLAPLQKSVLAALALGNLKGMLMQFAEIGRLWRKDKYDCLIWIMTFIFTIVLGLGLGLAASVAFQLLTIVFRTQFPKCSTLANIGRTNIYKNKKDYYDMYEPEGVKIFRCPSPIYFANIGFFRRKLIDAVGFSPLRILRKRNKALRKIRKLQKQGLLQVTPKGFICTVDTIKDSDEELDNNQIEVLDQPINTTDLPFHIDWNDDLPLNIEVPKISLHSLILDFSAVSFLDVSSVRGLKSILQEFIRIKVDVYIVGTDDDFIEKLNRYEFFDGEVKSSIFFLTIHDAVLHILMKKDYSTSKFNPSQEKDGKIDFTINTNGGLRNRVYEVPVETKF
# Protocol: Inhibition of (human) SLC26A3 by Compound A1 was also tested, using a HEK cell model expressing SLC26A3 and YFP.
# To generate a cell line enriched for expression of SLC26A3, HEK293 cells were transduced with lentiviral particles generated with the pLVX-IRES-mCherry-SLC26A3 transfer vector and then transfected to express YFP.
# HEK293 cells transfected with pIRES-YFP-slc26a9 were plated in 96-well black-walled, clear-bottom tissue culture plates (Corning Life Sciences, Tewksbury, MA) after coating with FNC Coating Mix (AthenaES, Baltimore, MD). […] Assays of slc26a9-mediated anion exchange were done by initially recording YFP fluorescence prior to addition of 100 µL of NaI-substituted PBS to test wells, with the initial rate of Cl^-/I^- exchange deduced from fluorescence intensity by single exponential regression. […] To assay SLC26A3 function, HEK293 cells transduced with lentiviral particles generated from the pLVX-IRES-mCherry-SLC26A3 transfer vector were transfected to express YFP for Cl^-/I^- exchange assays as described above; red fluorescence images were acquired to confirm SLC26A3 expression in cells. […]
smiles,measurement,setting,value
Cc1c(CC(=O)O)c(=O)oc2c(C)c(OCc3cccc(Br)c3)ccc12 [Compound A1],effect on Cl-/I- exchange activity of PAT-1 (slc26a6),[1],did not alter; also recorded: did not inhibit; also recorded: differences not significant
same,pIC50,[2]; HEK cells,~6.60
same,extent of inhibition of SLC26A3-mediated Cl-/I- exchange,[2]; higher concentrations,complete inhibition
